Measurements from ChEMBL document CHEMBL1201862, “PubChem BioAssay data set” (2004).
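Results reflect a 48-hour exposure of cells in 96-well plates to compound at five concentrations. GI50 marks 50% less growth.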 Active and inactive are the calls of the source. Cut-off read from the data, not from the text of the source: active = GI50 up to about 1.1 µM and inactive = higher.

Legend:
Experiment in all cases: NCI-60 cell line screen, 48 h
SN12C = test system: SN12C
DU-145 = test system: DU-145
UO-31 = test system: UO-31
NCI-H522 = test system: NCI-H522
OVCAR-8 = test system: OVCAR-8
PC-3 = test system: PC-3
SK-OV-3 = test system: SK-OV-3
OVCAR-4 = test system: OVCAR-4
SK-MEL-28 = test system: SK-MEL-28
A549 = test system: A549
NCI-H460 = test system: NCI-H460
K562 = test system: K562
M14 = test system: M14
A498 = test system: A498
SF-268 = test system: SF-268
LOX IMVI = test system: LOX IMVI
NCI-H23 = test system: NCI-H23
SW-620 = test system: SW-620
HCC 2998 = test system: HCC 2998
SR = test system: SR

Measured: GI50

C[N+](C)(C)CCCSc1nc2ccccc2[nH]1
inactive: SN12C > 100 µM | DU-145 > 100 µM | UO-31 > 100 µM | NCI-H522 > 100 µM | OVCAR-8 > 100 µM | PC-3 > 100 µM | SK-OV-3 > 100 µM | OVCAR-4 > 100 µM | SK-MEL-28 > 100 µM | A549 > 100 µM | NCI-H460 > 100 µM | K562 > 100 µM | M14 > 100 µM | A498 > 100 µM | SF-268 > 100 µM | LOX IMVI > 100 µM | NCI-H23 > 100 µM | SW-620 > 100 µM | HCC 2998 > 100 µM

Cn1c2ccccc2c(=O)c2cccc(C(=O)NC(CCCNC(=N)N)C(=O)O)c21 (stereo unspecified)
inactive: SN12C > 100 µM | DU-145 > 100 µM | UO-31 > 100 µM | OVCAR-8 > 100 µM | PC-3 > 100 µM | SK-OV-3 > 100 µM | OVCAR-4 > 100 µM | SK-MEL-28 > 100 µM | A549 > 100 µM | NCI-H460 > 100 µM | K562 > 100 µM | M14 > 100 µM | SF-268 > 100 µM | LOX IMVI > 100 µM | NCI-H23 > 100 µM | SW-620 > 100 µM | HCC 2998 > 100 µM

COc1cc(OC)c(OC)cc1/C=C/c1cnnc2ccccc12
inactive: SN12C > 10 µM | DU-145 > 10 µM | UO-31 > 10 µM | NCI-H522 > 10 µM | OVCAR-8 > 10 µM | PC-3 4.33 µM | SK-OV-3 > 10 µM | OVCAR-4 > 10 µM | SK-MEL-28 > 10 µM | A549 > 10 µM | NCI-H460 > 10 µM | K562 7.85 µM | M14 > 10 µM | A498 > 10 µM | SF-268 > 10 µM | LOX IMVI 6.9 µM | NCI-H23 > 10 µM | SW-620 > 10 µM | HCC 2998 > 10 µM

O/N=C\c1c(O)ccc2ccccc12
inactive: SN12C 38.3 µM | OVCAR-8 9.12 µM | PC-3 88.3 µM | SK-OV-3 36.9 µM | SR 21.2 µM | SK-MEL-28 47.2 µM | A549 46.6 µM | NCI-H460 44.7 µM | K562 46.8 µM | M14 68.2 µM | A498 56.2 µM | SF-268 31.6 µM | LOX IMVI 45.8 µM | NCI-H23 83.6 µM | SW-620 73.6 µM | HCC 2998 31.7 µM

C=C(CO)[C@H]1CC/C(C)=C/CC/C(C)=C/C/C=C(\C)[C@H](O)C1
inactive: SN12C 33.3 µM | DU-145 49.3 µM | UO-31 30.9 µM | NCI-H522 16.9 µM | OVCAR-8 17.8 µM | PC-3 41.8 µM | SK-OV-3 > 100 µM | OVCAR-4 46.7 µM | SK-MEL-28 16 µM | A549 42 µM | NCI-H460 22.1 µM | K562 37.8 µM | SF-268 22.2 µM | LOX IMVI 27.5 µM | NCI-H23 29.2 µM | SW-620 20.2 µM | HCC 2998 15.2 µM

CSc1n/c(=N\c2ccccc2)sn1-c1ccccc1
inactive: SN12C 15.6 µM | UO-31 17.3 µM | NCI-H522 2.71 µM | OVCAR-8 21.7 µM | SK-OV-3 36.6 µM | SR 17.8 µM | OVCAR-4 5.3 µM | SK-MEL-28 14.1 µM | A549 16.6 µM | NCI-H460 4.79 µM | K562 3.24 µM | M14 10.7 µM | A498 18.7 µM | SF-268 19.6 µM | LOX IMVI 16.6 µM | NCI-H23 14.1 µM | SW-620 12.3 µM | HCC 2998 17.9 µM

CCOC(=O)C12CCC(=O)N1N(C)c1ncccc1N2 (stereo unspecified)
inactive: DU-145 > 100 µM | UO-31 > 100 µM | NCI-H522 > 100 µM | OVCAR-8 > 100 µM | SK-OV-3 > 100 µM | SR > 100 µM | OVCAR-4 > 100 µM | SK-MEL-28 > 100 µM | A549 > 100 µM | NCI-H460 > 100 µM | K562 > 100 µM | M14 > 100 µM | A498 > 100 µM | SF-268 > 100 µM | LOX IMVI > 100 µM | NCI-H23 > 100 µM | SW-620 > 100 µM | HCC 2998 77.4 µM

CSc1nc2c(nc(N)n2C2OC(CO)C(O)C(O)C2O)c(=O)n1C (stereo unspecified)
inactive: SN12C > 100 µM | UO-31 > 100 µM | NCI-H522 > 100 µM | OVCAR-8 > 100 µM | SK-OV-3 > 100 µM | SR > 100 µM | OVCAR-4 > 100 µM | SK-MEL-28 > 100 µM | A549 > 100 µM | NCI-H460 > 100 µM | K562 > 100 µM | M14 > 100 µM | A498 > 100 µM | SF-268 > 100 µM | LOX IMVI > 100 µM | NCI-H23 > 100 µM | SW-620 > 100 µM | HCC 2998 > 100 µM

Cn1nc2ccc([N+](=O)[O-])c(Cn3nnc4ccccc43)c2n1
inactive: SN12C > 100 µM | DU-145 > 100 µM | UO-31 > 100 µM | OVCAR-8 > 100 µM | SK-OV-3 > 100 µM | OVCAR-4 > 100 µM | SK-MEL-28 > 100 µM | A549 > 100 µM | NCI-H460 > 100 µM | K562 > 100 µM | M14 > 100 µM | A498 > 100 µM | SF-268 > 100 µM | LOX IMVI 82.8 µM | NCI-H23 > 100 µM | SW-620 > 100 µM | HCC 2998 > 100 µM

S=C1Cc2c([nH]c3ccccc23)-c2ccccc2N1
inactive: SN12C 38.6 µM | DU-145 41.3 µM | UO-31 19.1 µM | OVCAR-8 38.3 µM | PC-3 21.5 µM | SK-OV-3 24.2 µM | SR 42 µM | OVCAR-4 > 100 µM | SK-MEL-28 > 100 µM | A549 23 µM | NCI-H460 35.4 µM | K562 47.5 µM | M14 > 100 µM | SF-268 34.4 µM | LOX IMVI 75.2 µM | NCI-H23 79.1 µM | SW-620 > 100 µM

O=P(O)(CN1CCN(CP(=O)(O)c2ccccc2)CCN(CP(=O)(O)c2ccccc2)CC1)c1ccccc1
inactive: DU-145 > 100 µM | UO-31 > 100 µM | OVCAR-8 > 100 µM | SK-OV-3 > 100 µM | OVCAR-4 32.1 µM | SK-MEL-28 > 100 µM | A549 47.6 µM | NCI-H460 36 µM | K562 > 100 µM | A498 9.16 µM | SF-268 > 100 µM | LOX IMVI 67.3 µM | NCI-H23 > 100 µM | SW-620 45.6 µM | HCC 2998 78.2 µM

C=C1CC2CC(=O)C(O)C(C1)C2 (stereo unspecified)
inactive: SN12C > 100 µM | DU-145 > 100 µM | UO-31 > 100 µM | NCI-H522 > 100 µM | OVCAR-8 > 100 µM | SK-OV-3 > 100 µM | SR > 100 µM | A549 > 100 µM | NCI-H460 > 100 µM | K562 > 100 µM | M14 > 100 µM | A498 > 100 µM | SF-268 > 100 µM | LOX IMVI > 100 µM | NCI-H23 90.8 µM | SW-620 > 100 µM | HCC 2998 > 100 µM

CN1c2ccccc2S(=O)(=O)n2c(COc3ccc(Cl)cc3)nnc21
inactive: SN12C > 100 µM | DU-145 > 100 µM | UO-31 > 100 µM | NCI-H522 31.3 µM | OVCAR-8 > 100 µM | PC-3 > 100 µM | SK-OV-3 77.1 µM | OVCAR-4 59.3 µM | SK-MEL-28 > 100 µM | A549 > 100 µM | NCI-H460 > 100 µM | K562 > 100 µM | M14 > 100 µM | A498 30.5 µM | SF-268 55 µM | LOX IMVI > 100 µM | NCI-H23 > 100 µM | SW-620 > 100 µM | HCC 2998 > 100 µM

Cc1ccc(Cc2cc(N3CCN(c4cccc(Cl)c4)CC3)nnc2C)cc1
inactive: SN12C 56.4 µM | DU-145 > 100 µM | UO-31 > 100 µM | NCI-H522 18.7 µM | OVCAR-8 54.8 µM | PC-3 46.8 µM | SK-OV-3 > 100 µM | OVCAR-4 > 100 µM | SK-MEL-28 > 100 µM | A549 43 µM | NCI-H460 20.7 µM | M14 > 100 µM | A498 > 100 µM | SF-268 > 100 µM | NCI-H23 37.7 µM | SW-620 34.3 µM

COc1c(OC)c(O)c2c(=O)c(OC)c(-c3ccc4c(c3)OCO4)oc2c1O
inactive: SN12C > 100 µM | DU-145 > 100 µM | UO-31 > 100 µM | NCI-H522 > 100 µM | OVCAR-8 > 100 µM | PC-3 > 100 µM | SK-OV-3 > 100 µM | OVCAR-4 > 100 µM | SK-MEL-28 > 100 µM | A549 > 100 µM | NCI-H460 > 100 µM | K562 85.3 µM | M14 > 100 µM | A498 > 100 µM | SF-268 > 100 µM | LOX IMVI > 100 µM | NCI-H23 > 100 µM | SW-620 > 100 µM | HCC 2998 > 100 µM

COc1ccc(NC(=O)/C(=N/NC(N)=S)C2C(=O)NC(=S)NC2=O)c(OC)c1
inactive: SN12C > 100 µM | DU-145 > 100 µM | UO-31 > 100 µM | NCI-H522 > 100 µM | OVCAR-8 > 100 µM | PC-3 > 100 µM | SK-OV-3 > 100 µM | OVCAR-4 > 100 µM | SK-MEL-28 > 100 µM | A549 > 100 µM | NCI-H460 > 100 µM | K562 > 100 µM | M14 > 100 µM | A498 > 100 µM | SF-268 > 100 µM | LOX IMVI > 100 µM | NCI-H23 > 100 µM | SW-620 > 100 µM | HCC 2998 > 100 µM
